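Exposure lasted 48 hours, with cells grown in 96-well plates and compounds tested at five concentrations. Definition used: TGI = concentration required for complete inhibition of growth.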
What was measured:
Assay in all cases: NCI anticancer screen, dose series, 48 h
LOX IMVI melanoma = tested on: LOX IMVI melanoma
SK-MEL-5 melanoma = tested on: SK-MEL-5 melanoma
HL-60(TB) leukemia = tested on: HL-60(TB) leukemia
MDA-MB-435 = tested on: MDA-MB-435
COLO 205 colon = tested on: COLO 205 colon
U251 CNS = tested on: U251 CNS
MDA-MB-231 breast = tested on: MDA-MB-231 breast
SNB-19 CNS = tested on: SNB-19 CNS
HCC-2998 colon = tested on: HCC-2998 colon
HT29 colon = tested on: HT29 colon
HOP-92 NSCLC = tested on: HOP-92 NSCLC

| SMILES | TGI (LOX IMVI melanoma) | TGI (SK-MEL-5 melanoma) | TGI (HL-60(TB) leukemia) | TGI (MDA-MB-435) | TGI (COLO 205 colon) | TGI (U251 CNS) | TGI (MDA-MB-231 breast) | TGI (SNB-19 CNS) | TGI (HCC-2998 colon) | TGI (HT29 colon) | TGI (HOP-92 NSCLC) |
| --- | --- | --- | --- | --- | --- | --- | --- | --- | --- | --- | --- |
| Cn1c2ccccc2n2c3ncccc3c(=NCCCC(=O)O)c(C#N)c12 | > 100 µM | > 100 µM | > 100 µM | > 100 µM | > 100 µM | > 100 µM | > 100 µM | > 100 µM | > 100 µM | > 100 µM | – |
| C(/C=C/c1ccccc1)=Nc1ccc2c(c1)Cc1ccccc1-2 | 63 µM | > 100 µM | – | > 100 µM | – | 44.4 µM | > 100 µM | > 100 µM | – | > 100 µM | > 100 µM |
| c1ccc2c(c1)NCCC(=NC1CCCCC1)N2 | – | > 100 µM | > 100 µM | > 100 µM | > 100 µM | > 100 µM | > 100 µM | > 100 µM | – | > 100 µM | – |
| Clc1ccc(Nc2nnc(CCCCCCCCc3nnc(Nc4ccc(Cl)cc4)o3)o2)cc1 | – | 64.2 µM | – | > 100 µM | > 100 µM | > 100 µM | > 100 µM | > 100 µM | > 100 µM | > 100 µM | 98.7 µM |
| O=c1[nH]nc(Cc2ccc(Cl)cc2)n1/N=C/c1ccco1 | – | – | > 100 µM | > 100 µM | > 100 µM | > 100 µM | > 100 µM | 78.4 µM | > 100 µM | > 100 µM | > 100 µM |
| CCCCCC1CC=CC(=O)O1 (stereo not drawn) | 25.1 µM | 26.8 µM | > 100 µM | 20.2 µM | 16.7 µM | 17.2 µM | 24.1 µM | 54.1 µM | – | 17.8 µM | 37.7 µM |
| CCN(CC)Cc1cc(Nc2c3ccccc3nc3c2[nH]c2ccccc23)cc(CN(CC)CC)c1O | – | 2.95 µM | > 100 µM | 2.04 µM | 1.74 µM | 2.19 µM | 2.62 µM | 5.75 µM | 2.27 µM | 5.1 µM | 3.86 µM |
| CC(=O)N(C)c1ccc(N=CN(C)C)cc1 | > 100 µM | > 100 µM | > 100 µM | > 100 µM | > 100 µM | > 100 µM | > 100 µM | > 100 µM | – | > 100 µM | > 100 µM |
| O=C1c2cccnc2S(=O)(=O)N1c1ccc(Oc2ccccc2)cc1 | – | – | > 100 µM | > 100 µM | > 100 µM | > 100 µM | > 100 µM | > 100 µM | > 100 µM | > 100 µM | > 100 µM |
| N#C[C@H](C(=O)c1ccccc1F)c1nc2ccccc2s1 | > 100 µM | > 100 µM | 79.2 µM | > 100 µM | 53.8 µM | > 100 µM | > 100 µM | > 100 µM | – | > 100 µM | > 100 µM |
| C1=NCCN2CCN(CCN=Cc3ccccc3OCc3cccc(n3)COc3ccccc31)CC2 | – | – | 22.6 µM | 2.22 µM | > 50 µM | 10.2 µM | 34 µM | > 50 µM | – | 18.5 µM | 41.6 µM |
| CCOc1ccc(N/C(=C(/C(Cl)=C(/Cl)Nc2ccccc2)[N+](=O)[O-])n2nnc3ccccc32)cc1 | – | 37 µM | – | 87.5 µM | 50.6 µM | 33.6 µM | 58.1 µM | > 100 µM | > 100 µM | – | 40.6 µM |
| Clc1c(Cl)c(Cl)c2c(nnn2C2CCCO2)c1Cl (stereo not drawn) | – | > 100 µM | 38.5 µM | > 100 µM | 47.4 µM | > 100 µM | > 100 µM | – | > 100 µM | > 100 µM | – |
| Nc1ccc2nc3c(nc2c1)C(=O)c1ccccc1-3 | – | > 100 µM | > 100 µM | > 100 µM | > 100 µM | > 100 µM | > 100 µM | > 100 µM | > 100 µM | > 100 µM | > 100 µM |
| O=C(NC(=S)Nc1ccc2c(c1)Sc1ccccc1O2)c1ccc([N+](=O)[O-])cc1 | > 100 µM | > 100 µM | > 100 µM | > 100 µM | > 100 µM | > 100 µM | > 100 µM | > 100 µM | – | > 100 µM | > 100 µM |
| OCc1cc2c(ccc3sc4ccc5sc6ccc7ncccc7c6c5c4c32)s1 | 26.6 µM | 11.8 µM | 67.1 µM | > 100 µM | 21.3 µM | > 100 µM | 18.2 µM | 28.7 µM | – | 39.7 µM | > 100 µM |
| O=P1(Oc2ccccc2)N=P(c2ccccc2)(c2ccccc2)C=C(c2ccc(Cl)cc2)N1 (stereo not drawn) | – | 10.2 µM | 20.5 µM | 17.1 µM | 17.1 µM | 18.8 µM | 32.1 µM | 29.7 µM | – | 15.5 µM | 25.4 µM |
| CC(=O)N1N=C(c2ccc3ccccc3c2O)CC1c1cccs1 (stereo not drawn) | – | > 100 µM | – | > 100 µM | > 100 µM | > 100 µM | > 100 µM | – | 66 µM | > 100 µM | > 100 µM |
| COc1cc(=O)c2c(O)c3c(O)oc(C)cc3c(OC)c2c1 | – | 64.5 µM | > 100 µM | 32.7 µM | 42.2 µM | > 100 µM | 62.5 µM | > 100 µM | – | 40.7 µM | 42.4 µM |

Source: PubChem BioAssay (NCI)
